Measured values reported in the NIST ThermoML archive (doi:10.1016/j.fluid.2014.01.004).
± gives the expanded uncertainty stated by the source.

Legend:
[1] = DTA
[2] = Molar enthalpy of transition or fusion; conditions: DSC

SMILES | Triple point temperature ([1]; Crystal 1) [K] | Triple point temperature ([1]; Crystal 2) [K] | Molar enthalpy of transition or fusion ([2]; Crystal 2) [kcal/mol] | Triple point temperature ([1]; Crystal) [K] | Molar enthalpy of transition or fusion ([2]; Crystal) [kcal/mol]
CCCCCCCCCCCC(=O)O [dodecanoic acid] | 318.29 ± 0.41 | 317.9 ± 0.6 | 8.51 ± 0.335 |  | 
CCCCCCCCCCCCCCCCO [1-hexadecanol] | 323.17 ± 0.41 | 322.27 ± 0.49 | 13.5 ± 0.765 |  | 
CCCCCCCCCCCCCC(=O)O [tetradecanoic acid] | 328.13 ± 0.48 | 327.65 ± 0.48 | 10.5 ± 0.43 |  | 
CCCCCCCCCCCCCCCC(=O)O [hexadecanoic acid] |  |  |  | 336.34 ± 0.63 | 12.7 ± 0.574
CCCCCCCCCCCCCCO [1-tetradecanol] | 311.39 ± 0.39 | 310.45 ± 0.41 | 11.4 ± 0.526 |  | 
CCCCCCCCCCCCCCCCCCO [1-octadecanol] | 331.82 ± 0.49 | 330.97 ± 0.39 | 15.6 ± 0.908 |  | 
